Results published in PubChem BioAssay (NCI).
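96-well plates; 48 h exposure; 5 concentrations. Endpoints by linear interpolation between flanking doses. Not reached: highest tested concentration assigned. GI50 is the concentration that inhibits growth by half. TGI: concentration producing complete growth inhibition.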

Columns and labels:
Experiment in all cases: NCI tumour cell line growth inhibition, 48 h
SR leukemia = system: SR leukemia
SW-620 colon = system: SW-620 colon
SNB-19 CNS = system: SNB-19 CNS
HL-60(TB) leukemia = system: HL-60(TB) leukemia
UACC-62 melanoma = system: UACC-62 melanoma
NCI-H23 lung = system: NCI-H23 lung
HT29 colon = system: HT29 colon
NCI-H460 lung = system: NCI-H460 lung
SK-OV-3 ovarian = system: SK-OV-3 ovarian
OVCAR-3 ovarian = system: OVCAR-3 ovarian
T-47D breast = system: T-47D breast
U251 CNS = system: U251 CNS
RXF 393 renal = system: RXF 393 renal
MDA-MB-231 breast = system: MDA-MB-231 breast
A498 renal = system: A498 renal
NCI/ADR-RES ovarian = system: NCI/ADR-RES ovarian
MCF7 breast = system: MCF7 breast
OVCAR-5 ovarian = system: OVCAR-5 ovarian
HCT-15 colon = system: HCT-15 colon
SF-268 CNS = system: SF-268 CNS
KM12 colon = system: KM12 colon
SK-MEL-5 melanoma = system: SK-MEL-5 melanoma
UACC-257 melanoma = system: UACC-257 melanoma
ACHN renal = system: ACHN renal
OVCAR-4 ovarian = system: OVCAR-4 ovarian
SK-MEL-28 melanoma = system: SK-MEL-28 melanoma
NCI-H226 lung = system: NCI-H226 lung
A549 NSCLC = system: A549 NSCLC
M14 melanoma = system: M14 melanoma
MOLT-4 leukemia = system: MOLT-4 leukemia
SF-539 CNS = system: SF-539 CNS
NCI-H522 lung = system: NCI-H522 lung
786-0 renal = system: 786-0 renal
TK-10 renal = system: TK-10 renal
CCRF-CEM leukemia = system: CCRF-CEM leukemia
OVCAR-8 ovarian = system: OVCAR-8 ovarian
IGROV1 ovarian = system: IGROV1 ovarian
UO-31 renal = system: UO-31 renal
BT-549 breast = system: BT-549 breast
HS 578T breast = system: HS 578T breast
DU-145 prostate = system: DU-145 prostate
CAKI-1 renal = system: CAKI-1 renal
RPMI-8226 leukemia = system: RPMI-8226 leukemia
MALME-3M melanoma = system: MALME-3M melanoma
MDA-MB-435 = system: MDA-MB-435
SK-MEL-2 melanoma = system: SK-MEL-2 melanoma
PC-3 prostate = system: PC-3 prostate
HCC-2998 colon = system: HCC-2998 colon
HOP-92 NSCLC = system: HOP-92 NSCLC
SN12C renal = system: SN12C renal
COLO 205 colon = system: COLO 205 colon
LOX IMVI melanoma = system: LOX IMVI melanoma
K-562 leukemia = system: K-562 leukemia
HCT-116 colon = system: HCT-116 colon
HOP-62 NSCLC = system: HOP-62 NSCLC
SF-295 CNS = system: SF-295 CNS
SNB-75 CNS = system: SNB-75 CNS

For CS(=O)(=O)Nc1ccc(Nc2c3ccccc3nc3cc(N)ccc23)cc1, the GI50 (SR leukemia) was 35 nM, the TGI (SR leukemia) was 1190 nM and the GI50 (SW-620 colon) was 561 nM. It also gave a TGI (SW-620 colon) of 30 µM, a GI50 (SNB-19 CNS) of 241 nM and a TGI (SNB-19 CNS) of 15.4 µM. The GI50 (HL-60(TB) leukemia) was 769 nM, the TGI (HL-60(TB) leukemia) was 8.51 µM and the GI50 (UACC-62 melanoma) was 555 nM. For the same compound, the TGI (UACC-62 melanoma) was 14.8 µM, the GI50 (NCI-H23 lung) was 436 nM and the TGI (NCI-H23 lung) was 12.8 µM. The GI50 (HT29 colon) was 5.15 µM, the TGI (HT29 colon) was 31.7 µM and the GI50 (NCI-H460 lung) was 25.5 nM. It also gave a TGI (NCI-H460 lung) of 2600 nM, a GI50 (SK-OV-3 ovarian) of 1310 nM and a TGI (SK-OV-3 ovarian) of 27.7 µM. It also gave a GI50 (OVCAR-3 ovarian) of 1700 nM, a TGI (OVCAR-3 ovarian) of 8.83 µM and a GI50 (T-47D breast) of 80.6 nM. For the same compound, the TGI (T-47D breast) was 2520 nM, the GI50 (U251 CNS) was 79.4 nM and the TGI (U251 CNS) was 1300 nM. It also gave a GI50 (RXF 393 renal) of 12.5 µM, a TGI (RXF 393 renal) of 34.9 µM and a GI50 (MDA-MB-231 breast) of 12.4 µM. For the same compound, the TGI (MDA-MB-231 breast) was 34 µM, the GI50 (A498 renal) was 1320 nM and the TGI (A498 renal) was 17.4 µM. The GI50 (NCI/ADR-RES ovarian) was > 100 µM, the TGI (NCI/ADR-RES ovarian) was > 100 µM and the GI50 (MCF7 breast) was 52 nM. It also gave a TGI (MCF7 breast) of 9.16 µM, a GI50 (OVCAR-5 ovarian) of 5.57 µM and a TGI (OVCAR-5 ovarian) of 39.7 µM. The GI50 (HCT-15 colon) was 11 µM, the TGI (HCT-15 colon) was > 100 µM and the GI50 (SF-268 CNS) was 22.2 nM. It also gave a TGI (SF-268 CNS) of 5.69 µM, a GI50 (KM12 colon) of 499 nM and a TGI (KM12 colon) of 7.14 µM. It also gave a GI50 (SK-MEL-5 melanoma) of 615 nM, a TGI (SK-MEL-5 melanoma) of 5.45 µM and a GI50 (UACC-257 melanoma) of 1480 nM. For the same compound, the TGI (UACC-257 melanoma) was 14.9 µM, the GI50 (ACHN renal) was 231 nM and the TGI (ACHN renal) was 17.8 µM. It also gave a GI50 (OVCAR-4 ovarian) of 2920 nM, a TGI (OVCAR-4 ovarian) of 26.8 µM and a GI50 (SK-MEL-28 melanoma) of 1900 nM. For the same compound, the TGI (SK-MEL-28 melanoma) was 16.2 µM, the GI50 (NCI-H226 lung) was 246 nM and the TGI (NCI-H226 lung) was 3.89 µM. It also gave a GI50 (A549 NSCLC) of 62 nM, a TGI (A549 NSCLC) of 15.6 µM and a GI50 (M14 melanoma) of 361 nM. It also gave a TGI (M14 melanoma) of 7.1 µM, a GI50 (MOLT-4 leukemia) of 19.4 nM and a TGI (MOLT-4 leukemia) of 987 nM. It also gave a GI50 (SF-539 CNS) of 531 nM, a TGI (SF-539 CNS) of 9.47 µM and a GI50 (NCI-H522 lung) of 164 nM. For the same compound, the TGI (NCI-H522 lung) was 2690 nM, the GI50 (786-0 renal) was 277 nM and the TGI (786-0 renal) was 4.66 µM. It also gave a GI50 (TK-10 renal) of 6.08 µM, a TGI (TK-10 renal) of 31.7 µM and a GI50 (CCRF-CEM leukemia) of 77.6 nM. It also gave a TGI (CCRF-CEM leukemia) of 2040 nM, a GI50 (OVCAR-8 ovarian) of 376 nM and a TGI (OVCAR-8 ovarian) of 22.2 µM. The GI50 (IGROV1 ovarian) was 5.38 µM, the TGI (IGROV1 ovarian) was > 73.6 µM and the GI50 (UO-31 renal) was 3.13 µM. The TGI (UO-31 renal) was > 100 µM, the GI50 (BT-549 breast) was 1350 nM and the TGI (BT-549 breast) was 8.41 µM. For the same compound, the GI50 (HS 578T breast) was 1720 nM, the TGI (HS 578T breast) was 13.4 µM and the GI50 (DU-145 prostate) was 480 nM. The TGI (DU-145 prostate) was 26 µM, the GI50 (CAKI-1 renal) was 319 nM and the TGI (CAKI-1 renal) was 13 µM. The GI50 (RPMI-8226 leukemia) was 567 nM, the TGI (RPMI-8226 leukemia) was 6.84 µM and the GI50 (MALME-3M melanoma) was 620 nM. The TGI (MALME-3M melanoma) was 3.66 µM, the GI50 (MDA-MB-435) was 5.79 µM and the TGI (MDA-MB-435) was 21.6 µM. For the same compound, the GI50 (SK-MEL-2 melanoma) was 2260 nM, the TGI (SK-MEL-2 melanoma) was 7.04 µM and the GI50 (PC-3 prostate) was 1310 nM. It also gave a TGI (PC-3 prostate) of 27.1 µM, a GI50 (HCC-2998 colon) of 5.22 µM and a TGI (HCC-2998 colon) of 24.4 µM. For the same compound, the GI50 (HOP-92 NSCLC) was 398 nM, the TGI (HOP-92 NSCLC) was 4.4 µM and the GI50 (SN12C renal) was 150 nM. It also gave a TGI (SN12C renal) of 4.88 µM, a GI50 (COLO 205 colon) of 2510 nM and a TGI (COLO 205 colon) of 20 µM. The GI50 (LOX IMVI melanoma) was 418 nM, the TGI (LOX IMVI melanoma) was 15.2 µM and the GI50 (K-562 leukemia) was 1310 nM. The TGI (K-562 leukemia) was 23.9 µM, the GI50 (HCT-116 colon) was 717 nM and the TGI (HCT-116 colon) was 29.2 µM. It also gave a GI50 (HOP-62 NSCLC) of 260 nM, a TGI (HOP-62 NSCLC) of 10.2 µM and a GI50 (SF-295 CNS) of 227 nM. For the same compound, the TGI (SF-295 CNS) was 6.79 µM, the GI50 (SNB-75 CNS) was 726 nM and the TGI (SNB-75 CNS) was 12.4 µM.
